Experimental data taken from BindingDB's records for doi:10.1002/cbic.201300770 (Northeast Ohio Medial University, 2014).

Experiments:
[1] = target: T1, Amine oxidase [flavin-containing] B (Homo sapiens, UniProt P27338); assay: MAO Enzyme Assays; details: pH 7.4
T1 sequence (P27338 whole entry): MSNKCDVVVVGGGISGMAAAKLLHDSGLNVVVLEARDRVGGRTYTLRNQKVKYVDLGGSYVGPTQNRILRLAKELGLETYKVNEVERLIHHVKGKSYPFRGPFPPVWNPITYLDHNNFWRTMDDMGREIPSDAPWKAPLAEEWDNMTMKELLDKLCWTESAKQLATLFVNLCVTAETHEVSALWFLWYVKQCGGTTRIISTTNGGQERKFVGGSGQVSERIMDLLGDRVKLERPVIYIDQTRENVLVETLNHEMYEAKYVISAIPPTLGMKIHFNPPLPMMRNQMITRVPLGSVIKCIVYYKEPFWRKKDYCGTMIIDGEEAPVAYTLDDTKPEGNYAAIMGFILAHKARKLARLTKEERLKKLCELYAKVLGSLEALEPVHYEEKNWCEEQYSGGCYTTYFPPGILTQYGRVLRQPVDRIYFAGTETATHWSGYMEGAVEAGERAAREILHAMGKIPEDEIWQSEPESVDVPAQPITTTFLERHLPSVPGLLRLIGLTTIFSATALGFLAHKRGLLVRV
Procedure: (§1) The buffer system used was a 0.1 M phosphate buffer (pH 7.4). The assays were carried out in a fluorescent 96-well plate. The final concentrations of MAO-A and MAO-B were 6 µg/mL and 15 µg/mL, respectively. The final concentration of kynuramine was 40 µM for MAO-A or 20 µM for MAO-B. The compounds (10 mM stock solution in DMSO; less than 2% (v/v) final concentration of DMSO in the assay) were incubated with MAO and the substrate for 20 min, and quenched with the addition of 2 N NaOH.

[2] = target: T2, Amine oxidase [flavin-containing] A (Homo sapiens, UniProt P21397); assay: MAO Enzyme Assays; details: pH 7.4
T2 sequence (P21397 whole entry): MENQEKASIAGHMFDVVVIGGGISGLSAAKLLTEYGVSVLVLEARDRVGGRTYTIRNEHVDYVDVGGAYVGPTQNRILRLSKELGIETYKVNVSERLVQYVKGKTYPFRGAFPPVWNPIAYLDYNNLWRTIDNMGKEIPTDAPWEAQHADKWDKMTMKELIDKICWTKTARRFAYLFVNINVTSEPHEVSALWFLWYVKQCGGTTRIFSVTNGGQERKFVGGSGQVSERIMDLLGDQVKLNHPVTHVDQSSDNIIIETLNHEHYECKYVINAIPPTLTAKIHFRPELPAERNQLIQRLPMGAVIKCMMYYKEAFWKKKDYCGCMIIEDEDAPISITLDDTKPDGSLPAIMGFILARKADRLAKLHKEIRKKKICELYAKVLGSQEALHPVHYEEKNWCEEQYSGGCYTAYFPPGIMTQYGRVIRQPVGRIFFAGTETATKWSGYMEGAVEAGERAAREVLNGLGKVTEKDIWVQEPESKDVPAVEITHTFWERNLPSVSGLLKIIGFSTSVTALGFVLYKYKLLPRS
Procedure: as §1

## c1ccc(/N=N/c2ccccc2)cc1 [(E)-1,2-diphenyldiazene]
[1]
  IC50: 2.66 µM
[2]
  IC50: 22.9 µM

## CN(C)c1ccc(/N=N/c2ccccc2)cc1 [(E)-N,N-dimethyl-4-(phenyldiazenyl)aniline]
[1]
  IC50: 0.0146 µM
[2]
  IC50: 4.64 µM
